Substitutions are numbered along the chain they refer to. Like-named read-outs stand apart in the source and are kept apart here.
How the values were obtained:
wild-type AR = molecular target: T1, wild-type AR (Homo sapiens, UniProt P10275); assay: Competitive inhibition of [3H]R1881 binding, wild-type AR (LAPC4/PC3-AR cells); details: read-out: wild-type (LAPC4/PC3-AR), inhibition of [3H]R1881 binding as symbol
T1 construct: the wild-type AR expressed endogenously in LAPC4 cells; endogenous in cells; host or cells: LAPC4 cells (endogenous) and PC3-AR cells (PC-3 stably transfected with human wild-type AR)
T1 sequence (P10275 1-920): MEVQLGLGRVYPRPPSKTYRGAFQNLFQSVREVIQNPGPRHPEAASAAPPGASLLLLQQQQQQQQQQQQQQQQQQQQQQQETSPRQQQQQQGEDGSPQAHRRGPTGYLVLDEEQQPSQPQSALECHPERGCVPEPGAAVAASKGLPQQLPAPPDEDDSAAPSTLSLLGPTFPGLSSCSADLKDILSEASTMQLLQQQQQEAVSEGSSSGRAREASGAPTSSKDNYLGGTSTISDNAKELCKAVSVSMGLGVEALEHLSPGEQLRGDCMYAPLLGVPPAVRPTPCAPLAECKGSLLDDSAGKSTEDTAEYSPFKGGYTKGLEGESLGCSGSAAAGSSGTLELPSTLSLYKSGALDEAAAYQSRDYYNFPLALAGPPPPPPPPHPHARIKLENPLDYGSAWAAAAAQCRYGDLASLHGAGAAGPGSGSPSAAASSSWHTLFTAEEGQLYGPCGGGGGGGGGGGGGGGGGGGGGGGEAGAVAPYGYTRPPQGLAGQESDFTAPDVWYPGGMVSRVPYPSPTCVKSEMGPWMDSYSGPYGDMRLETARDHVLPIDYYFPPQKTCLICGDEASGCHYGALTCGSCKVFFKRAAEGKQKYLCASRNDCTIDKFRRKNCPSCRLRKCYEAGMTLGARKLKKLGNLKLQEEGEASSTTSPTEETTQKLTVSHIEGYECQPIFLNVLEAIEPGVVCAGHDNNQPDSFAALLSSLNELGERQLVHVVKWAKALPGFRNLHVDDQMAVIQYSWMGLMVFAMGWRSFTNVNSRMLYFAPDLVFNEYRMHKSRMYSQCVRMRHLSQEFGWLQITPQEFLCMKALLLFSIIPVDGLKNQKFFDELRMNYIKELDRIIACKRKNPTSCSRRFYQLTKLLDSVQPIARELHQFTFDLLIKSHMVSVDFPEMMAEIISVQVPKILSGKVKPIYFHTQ
Description: (§1) In order to determine if the CYP17 inhibitors interact with the AR, competitive binding assays were performed as described previously. The ability of the test compounds (1 nM-10 μM) to displace [^3H]R1881 (5.0 nM) from the AR was determined in LAPC4 cells (wild-type AR), PC3 cells transfected with wild-type AR (PC3-AR), LNCaP cells which express an endogenous AR with a mutation in the ligand binding domain (T877A), and PC3 cells transfected with an AR containing a mutation in the DNA binding domain (T575A).
(§2) The ability of the test compounds to displace [^3H]R1881 (5.0 nM) from the androgen receptor was determined in LAPC4 cells (wild-type AR), PC3 cells transfected with wild-type AR, LNCaP cells which express an endogenous AR with a mutation in the ligand binding domain (T877A), and PC3 cells transfected with an AR containing a mutation in the DNA binding domain (T575A). Cells were plated (2-3×10^5) in 24 well multiwell dishes in steroid-free medium and allowed to attach. The following day the medium was replaced with serum-free, steroid free RPMI supplemented with 0.1% BSA and containing [^3H]R1881 (5 nM), test compounds (1 nM-10 μM), and 1 μM triamcinolone acetonide to saturate progesterone and glucocorticoid receptors. Following a 2 hour incubation period at 37° C., cells were washed twice with ice-cold DPBS and solubilized in DPBS containing 0.5% SDS and 20% glycerol.

T877A AR = molecular target: T2, T877A AR (Homo sapiens, UniProt P10275, T878A); assay: Competitive inhibition of [3H]R1881 binding, T877A AR (LNCaP cells); details: read-out: T877A (LNCaP), inhibition of [3H]R1881 binding as symbol
T2 construct: endogenous in cells; host or cells: LNCaP cells
T2 sequence (P10275 1-920 T878A): T1 sequence (P10275 1-920) with T878A
Description: as §1, §2

LAPC4 cells = assay: Cell proliferation assay (MTT), LAPC4 cells; details: Homo sapiens, LAPC4, 168 h
Description: (§3) To determine the effect of steroids and novel compounds on cell proliferation, each cell type was transferred into steroid-free medium three days prior to the start of the experiments (steroid-free medium consisted of phenol red free RPMI supplemented with 5% dextran-coated, charcoal treated serum and 1% penicillin/streptomycin solution). Growth studies were then performed by plating cells (1.5×10^4cells/well) in 24-well multiwell dishes (Corning, Inc. Corning, N.Y.). After a 24 hour attachment period, the medium was aspirated and replaced with steroid-free medium containing vehicle or the indicated concentrations of androgens and novel compounds (1 nM-10 μM). Control wells were treated with vehicle (ethanol). […] The medium was changed every three days and the numbers of viable cells were compared by MTT or XTT (LNCaP) assay on the seventh day.
(§4) For the MTT procedure, following incubation of cells for the above mentioned time, 0.5 mg/ml MTT was added to each well and incubated at 37° C. for three hours. Following incubation, the medium was aspirated completely, with care taken not to disturb the formazan crystals. DMSO (500 μl) was used to solubilize these crystals. After slight shaking, the plates were read at 540 nm with a Victor 1420 scanning multi-well spectrophotometer. All results represent the average of a minimum of three wells. Additional control consisted of medium alone with no cells. XTT was performed essentially as MTT, with the deletion of the solubilization step and was preferred for the LNCaP cells that adhere poorly to the plates.
(§5) LNCaP cells were seeded at 15,000 cells/well in 24 well multi-well plates, and LAPC4 cells were seeded at 15,000 cells/well. […] The number of viable cells was compared by MTT assay (LAPC4) or XTT assay (LNCaP) on the 7th day.

LNCaP cells = assay: Cell proliferation assay (XTT), LNCaP cells; details: Homo sapiens, 168 h
Description: as §3, §4, §5

[1] = read-out: LAPC4 IC50 (μM), DHT +
[2] = read-out: LAPC4 IC50 (μM), DHT −
[3] = read-out: LNCaP IC50 (μM), DHT +
[4] = read-out: LNCaP IC50 (μM), DHT −

inhibition at 10 µM (wild-type AR) [%] | inhibition at 10 µM (T877A AR) [%] | IC50 (LNCaP cells; [3]) [µM] | IC50 (LNCaP cells; [4]) [µM] | SMILES | IC50 (LAPC4 cells; [1]) [µM] | IC50 (LAPC4 cells; [2]) [µM]
< 20 | < 20 | – | – | C[C@]12CC[C@H](O)CC1=CC[C@@H]1[C@@H]2CC[C@]2(C)C(c3cccnc3)=CC[C@@H]12 [Abiraterone] | – | –
– | – | 8.6 | 4.6 | CC(O)(CS(=O)(=O)c1ccc(F)cc1)C(=O)Nc1ccc(C#N)c(C(F)(F)F)c1 (stereo not shown) [Casodex, Bicalutamide] | 10 | 9
– | – | 6 | 2.6 | C[C@]12CC[C@H](O)CC1=CC[C@@H]1[C@@H]2CC[C@]2(C)C(n3cnc4ccccc43)=CC[C@@H]12 [VN/124-1, 3β-hydroxy-17-(1H-benzimidazole-1-yl)androsta-5,16-diene] | 3.2 | 4
